From patent US20140005070A1, “MARKERS ASSOCIATED WITH CYCLIN-DEPENDENT KINASE INHIBITORS” (Novartis AG, priority 2011, published 2014)

Experiments:
[1] = tested on: PD markers MEPCE, MCL, MYC, HEXIM, LARP7 and WHSC2; experiment: Affymetrix U133-Plus-2 microarray gene expression profiling of CDKI treated cell lines; assay type: cell-based; conditions: A375 cells, FIG. 2
Procedure: Five cell lines were analyzed: NCI-H929, a multiple myeloma cell line (ATCC Cat. # CRL-9068); NCI-H441, a lung papillary adenocarcinoma cell line (ATCC Cat. # HTB-174); A375, a melanoma cell line (ATCC Cat. # CRL-1619); A2058, a melanoma cell line (ATCC Cat. #CRL-1147) and U-87-MG, a glioblastoma cell line (ATCC Cat. #HTB-14). Cell lines were grown in the medium recommended by ATCC and treated as follows:
NCI-H441 and A375: 0 timepoint: Untreated, harvested when compound is added to the other plates.
2 hours: DMSO, 200 nM CKDI(8) or 500 nM CKDI(8) or 500 nM CKDI(7) (3 plates each, total 12 plates).
8 hours: DMSO, 200 nM CKDI(8) or 500 nM CKDI (8) or 500 nM CKDI(7) (3 plates each, total 12 plates).
16 hours: DMSO, 200 nM CKDI(8) or 500 nM CKDI(8) or 500 nM CKDI(7) (3 plates each, total 12 plates). […]
An average expression level was determined for each probeset at each time-point and treatment condition by computing the geomean expression level across replicate tumors. […] The p-value was determined by a two-tailed t-test assuming unequal variances (Satterwaithe's approximation). […]
This is shown in FIG. 2, where A375 cells that are sensitive to CDKI were treated with CDKI(7) and the reduction of gene expression was determined at 2, 8 and 16 hours of treatment.

MYC = experiment: Dog toxicology study, TaqMan mRNA in white blood cells after CDKI(7): MYC; assay type: in vivo
Procedure: (§1) As part of a dog toxicology study, CDKI(7) was administered to dogs. White blood cells were harvested and MEPCE, MYC and MCL1 gene expression was assessed as PD markers. mRNA levels of each of these PD markers were measured by TaqMan® at various time points after CDKI(7) treatment.
(§2) The study had three groups of three dogs each. Dogs in Group 1 (#101, #102, and #103) were treated with CDKI(7) at 0.5 mg/kg, dogs in Group 2 (#104, #105, and #106) were treated at 1 mg/kg CDKI(7) and dogs in Group 3 (#107, #108, and #109) were treated at 2 mg/kg CDKI(7). Samples were collected before treatment (0 hour), 3 hours, 7 hours and 24 hours after treatment for a total of 12 samples per group. Blood samples were received frozen in QIAGEN RNA protect® Animal Blood tubes (Cat. # 76554 QIAGEN-Valencia, Calif., USA). RNA samples were extracted using the QIAGEN RNeasy® Protect Animal Blood kit (Cat. # 73224). RNA samples were quantified using the RNA Quant-iT RNA® assay from Invitrogen (Cat. # Q32852 Invitrogen—Grand Island, N.Y., USA) and read on an Invitrogen Qubit fluorometer® (Cat. # Q32857). First strand cDNA synthesis was performed on 500 ng of RNA in a reaction volume of 20 μl using a High Capacity cDNA Reverse Transcription Kit® from Applied Biosystems (Cat. # 4368814 Applied Biosystems, Carlsbad, Calif., USA). The cDNA samples were then diluted to obtain a 10 ng cDNA input for the TaqMan® reaction. TaqMan® reactions were run in triplicates using a TaqMan® Gene Expression Master Mix from Applied Biosystems (Cat. # 4369016) on an ABI 7500® machine. The 18S rRNA level was used as an endogenous control for variations in cDNA input. The relative quantification method was used to analyze the data; this method uses one sample as a calibrator sample and express mRNA levels relative to that sample. The results were expressed as RQ values (Relative Quantification) with RQ Min and RQ Max values determining a 95% confidence interval for the real RQ value. The samples were grouped according to the dose and each group was treated as a separate experiment with one of the pre-dose samples used as a calibrator sample. The logarithm of the RQ values are plotted so that increases or decreases from the initial value can be more easily represented; on a logarithmic scale: a 10-fold increase or 10-fold decrease in RQ value are represented as +1 and −1 respectively.
The MYC transcription factor is a known oncogene and previous Examples have shown that its mRNA is short-lived and sensitive to CDK9 inhibition (see FIG. 2). The MYC mRNA levels were determined by TaqMan® using the relative quantification method. The calibrator samples are dog #101 at 0 hour timepoint for the 0.5 mg/kg dose of CDKI(7), dog #104 at 0 hour timepoint for the 1 mg/kg CDKI(7) dose and dog #107 at 0 hour timepoint for the 2 mg/kg CDKI(7) dose. The logarithm (base 10) of the RQ values is plotted with the error bars representing the 95% confidence interval.

MCL1 = experiment: Dog toxicology study, TaqMan mRNA in white blood cells after CDKI(7): MCL1; assay type: in vivo
Procedure: as §1, §2
The MCL1 gene encodes a pro-survival factor that is often amplified in cancer and we have previously shown that its mRNA is short-lived and sensitive to CDK9 inhibition (see FIG. 2). The mRNA levels were determined by TaqMan® using the relative quantification method. The calibrator samples are dog #101 at 0 hour timepoint for the 0.5 mg/kg dose of CDKI(7), dog #104 at 0 hour timepoint for the 1 mg/kg dose and dog #107 at 0 hour timepoint for the 2 mg/kg dose. The logarithm (base 10) of the RQ values is plotted with the error bars representing the 95% confidence interval.

[2] = 2 mg/kg, at 3 hours, all three dogs

Structure (SMILES): O=C(Nc1cc(-c2cccc(NCC3CCOCC3)n2)c(Cl)cn1)[C@@H]1CCCNC1 [CDKI(7)]
- expression of the PD markers MEPCE, MCL, MYC, HEXIM, LARP7 and WHSC2 ([1]; microarray, 2, 8 and 16 hours of treatment): reduced
- time point of greatest amount of reduction of MEPCE expression ([1]; microarray): 8 h
- MYC mRNA regulation (MYC; 0.5 mg/kg): no significant down regulation
- increase of MYC mRNA (MYC; 1 mg/kg, 3 or 7 hour time points): 2 fold
- MYC mRNA regulation (MYC; 2 mg/kg, FIG. 7): consistent down regulation
- maximum down regulation of MYC mRNA (MYC; [2]): 3.8 fold
- dogs showing MYC down regulation (MYC; 2 mg/kg, at 7 hours): 2 out of three
- MYC mRNA levels by 24 hours (MYC; all doses, 24 hours): trended back to pre-treatment levels
- MCL1 mRNA regulation (MCL1; 0.5 mg/kg): no significant down regulation
- increase of MCL1 mRNA (MCL1; 1 mg/kg, 7 hour time point, two out of three dogs): 2 fold
- MCL1 down regulation at 7 hours (MCL1; 2 mg/kg, 7 hours): not at 7 hours
- MCL1 mRNA regulation (MCL1; 2 mg/kg, FIG. 8): consistent down regulation
- maximum down regulation of MCL1 mRNA (MCL1; [2]): 2.7 fold
